How the values were obtained:
[1] = biological target: FAK (Homo sapiens (Human), UniProt Q05397); experiment: Biochemical assay for FAK activity (LANCE TR-FRET, ULight-poly Glu,Ala,Tyr substrate); conditions: GST-tagged FAK, 120 min reaction
Outline: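 GST-tagged FAK (2.5 nM working stock) with ULight-poly Glu,Ala,Tyr (666 nM stock) and ATP (33.3 μM stock) in Tris pH 7.5/MgCl2/DTT/CHAPS buffer with BSA, 120 min; EDTA-quenched. Phosphorylation read by TR-FRET with Eu-anti-phosphotyrosine (PY20) antibody after 60 min. Compounds tested as 12-point 3-fold dilutions.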

[2] = biological target: PYK2 (Homo sapiens (Human), UniProt Q14289); experiment: Biochemical assay for PYK2 activity (LANCE TR-FRET, ULight-poly Glu,Ala,Tyr substrate); conditions: GST-tagged PYK2, 40 min reaction
Sequence of PYK2 (Q14289 whole entry): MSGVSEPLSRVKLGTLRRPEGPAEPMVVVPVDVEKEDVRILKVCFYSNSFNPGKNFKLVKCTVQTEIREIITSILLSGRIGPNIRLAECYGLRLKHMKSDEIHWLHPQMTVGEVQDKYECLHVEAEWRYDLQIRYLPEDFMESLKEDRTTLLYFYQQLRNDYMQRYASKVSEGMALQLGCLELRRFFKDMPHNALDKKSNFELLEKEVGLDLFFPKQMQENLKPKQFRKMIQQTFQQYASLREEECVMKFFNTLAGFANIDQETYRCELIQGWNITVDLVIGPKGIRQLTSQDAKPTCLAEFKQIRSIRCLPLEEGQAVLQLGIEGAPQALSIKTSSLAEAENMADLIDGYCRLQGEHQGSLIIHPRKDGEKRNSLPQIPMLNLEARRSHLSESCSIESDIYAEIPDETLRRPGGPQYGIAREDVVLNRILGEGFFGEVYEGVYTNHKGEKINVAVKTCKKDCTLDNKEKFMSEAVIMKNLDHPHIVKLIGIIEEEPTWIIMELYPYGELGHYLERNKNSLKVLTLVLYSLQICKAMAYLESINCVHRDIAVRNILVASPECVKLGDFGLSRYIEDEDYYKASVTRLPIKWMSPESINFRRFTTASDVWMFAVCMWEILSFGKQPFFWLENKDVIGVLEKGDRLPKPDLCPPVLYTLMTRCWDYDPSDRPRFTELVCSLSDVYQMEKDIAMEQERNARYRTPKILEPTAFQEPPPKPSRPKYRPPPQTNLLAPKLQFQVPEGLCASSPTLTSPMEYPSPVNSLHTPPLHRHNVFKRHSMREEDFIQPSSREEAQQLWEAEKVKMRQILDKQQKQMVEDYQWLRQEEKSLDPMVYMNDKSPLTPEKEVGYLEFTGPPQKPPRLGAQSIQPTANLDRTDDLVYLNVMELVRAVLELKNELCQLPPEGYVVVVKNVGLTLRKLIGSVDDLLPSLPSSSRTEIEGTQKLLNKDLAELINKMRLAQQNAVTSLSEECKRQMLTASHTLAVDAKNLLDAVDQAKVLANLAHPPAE
Outline: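 GST-tagged human PYK2 (2 nM working stock) with ULight-poly Glu,Ala,Tyr (1:1:1) peptide (666 nM working stock) and ATP (46.6 μM working stock) in 40 mM Tris pH 7.5, MgCl2, 1 mM DTT, 1 mM CHAPS; 40 min reaction, EDTA quench. Phosphotyrosine read by LANCE Eu-anti-phosphotyrosine (PY20) TR-FRET after 60 min; 12-point 3-fold compound dilutions.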

Sequence of FAK (Q05397 whole entry): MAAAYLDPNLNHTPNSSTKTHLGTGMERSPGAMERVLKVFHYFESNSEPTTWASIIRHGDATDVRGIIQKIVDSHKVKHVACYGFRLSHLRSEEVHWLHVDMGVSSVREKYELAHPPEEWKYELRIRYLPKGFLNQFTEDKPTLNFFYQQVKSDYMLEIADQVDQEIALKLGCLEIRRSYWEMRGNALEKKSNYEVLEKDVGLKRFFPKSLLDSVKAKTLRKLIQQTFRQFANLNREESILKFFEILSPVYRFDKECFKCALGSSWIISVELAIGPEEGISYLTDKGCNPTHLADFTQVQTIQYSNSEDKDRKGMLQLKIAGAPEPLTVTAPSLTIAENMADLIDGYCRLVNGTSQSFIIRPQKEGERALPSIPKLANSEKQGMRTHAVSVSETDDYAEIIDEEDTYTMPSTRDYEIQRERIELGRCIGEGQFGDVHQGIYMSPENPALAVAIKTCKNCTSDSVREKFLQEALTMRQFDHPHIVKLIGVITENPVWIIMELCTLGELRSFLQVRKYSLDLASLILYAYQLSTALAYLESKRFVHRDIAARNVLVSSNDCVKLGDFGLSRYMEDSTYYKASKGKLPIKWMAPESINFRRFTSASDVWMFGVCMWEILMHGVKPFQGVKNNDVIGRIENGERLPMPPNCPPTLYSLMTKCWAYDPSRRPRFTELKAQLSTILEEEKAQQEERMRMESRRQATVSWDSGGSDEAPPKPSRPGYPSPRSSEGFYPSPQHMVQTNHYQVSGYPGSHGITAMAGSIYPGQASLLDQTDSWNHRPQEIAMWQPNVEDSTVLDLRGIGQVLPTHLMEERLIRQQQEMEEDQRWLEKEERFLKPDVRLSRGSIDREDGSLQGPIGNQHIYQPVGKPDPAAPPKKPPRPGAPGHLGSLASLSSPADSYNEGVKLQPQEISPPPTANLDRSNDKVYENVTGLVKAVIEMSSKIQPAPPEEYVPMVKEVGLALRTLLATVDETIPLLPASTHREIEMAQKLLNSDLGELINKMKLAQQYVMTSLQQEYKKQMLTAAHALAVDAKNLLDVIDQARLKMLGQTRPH

IC50 [1] [nM] | IC50 [2] [nM] | Compound
> 1000 | > 1000 | COc1cc(N2CCOCC2)ccc1Nc1nc2c(c(Nc3ccccc3S(=O)(=O)NC3CC3)n1)C1(CC1)CN2 [Example 146, N-cyclopropyl-2-(2′-(2-methoxy-4-morpholinophenylamino)-6′,7′-dihydrospiro[cyclopropane-1,5′-pyrrolo[2,3-d]pyrimidine]-4′-ylamino)benzenesulfonamide]
< 20 | < 20 | COCCNS(=O)(=O)c1ccccc1Nc1nc(Nc2ccc(N3CCOCC3)cc2OC)nc2c1C(C)(C)CN2 [Example 115, 2-(2-(2-methoxy-4-morpholinophenylamino)-5,5-dimethyl-6,7-dihydro-5H-pyrrolo[2,3-d]pyrimidin-4-ylamino)-N-(2-methoxyethyl)benzenesulfonamide]
< 20 | < 20 | COc1cc(N2CCOCC2)ccc1Nc1nc2c(c(Nc3ccccc3S(=O)(=O)NCC(C)C)n1)C(C)(C)CN2 [Example 107, N-isobutyl-2-(2-(2-methoxy-4-morpholinophenylamino)-5,5-dimethyl-6,7-dihydro-5H-pyrrolo[2,3-d]pyrimidin-4-ylamino)benzenesulfonamide]
< 200 | < 200 | CNC(=O)c1ccccc1Nc1nc(Nc2ccccc2OC)nc2c1CCN2 [Example 159, 2-(2-(2-methoxyphenylamino)-6,7-dihydro-5H-pyrrolo[2,3-d]pyrimidin-4-ylamino)-N-methylbenzamide]
< 20 | < 20 | COc1cc(-n2ccccc2=O)ccc1Nc1nc2c(c(Nc3ccccc3S(=O)(=O)NC(C)C)n1)CCN2 [Example 83, N-isopropyl-2-(2-(2-methoxy-4-(2-oxopyridin-1(2H)-yl)phenylamino)-6,7-dihydro-5H-pyrrolo[2,3-d]pyrimidin-4-ylamino)benzenesulfonamide]
< 500 | < 1000 | COc1cc(N2CCOCC2)ccc1Nc1nc2c(c(Nc3ccccc3C(=O)O)n1)CCN2 [Example 160, 2-(2-(2-methoxy-4-morpholinophenylamino)-6,7-dihydro-5H-pyrrolo[2,3-d]pyrimidin-4-ylamino)benzoic acid]
< 200 | < 200 | COc1cc(N2CCOCC2)ccc1Nc1nc2c(c(Nc3ccccc3S(=O)(=O)NC3CCCCC3)n1)C(C)(C)CN2 [Example 109, N-cyclohexyl-2-(2-(2-methoxy-4-morpholinophenylamino)-5,5-dimethyl-6,7-dihydro-5H-pyrrolo[2,3-d]pyrimidin-4-ylamino)benzenesulfonamide]
< 500 | < 200 | COc1cc(N2CCOCC2)ccc1Nc1nc2c(c(Nc3ccccc3S(=O)(=O)NCCO)n1)C(C)(C)CN2 [Example 119, N-(2-hydroxyethyl)-2-(2-(2-methoxy-4-morpholinophenylamino)-5,5-dimethyl-6,7-dihydro-5H-pyrrolo[2,3-d]pyrimidin-4-ylamino)benzenesulfonamide]
< 200 | < 200 | COc1cc(N2CCOCC2)ccc1Nc1nc2c(c(Nc3ccccc3C(=O)N3CCCC3)n1)C(C)(C)CN2 [Example 121, (2-(2-(2-methoxy-4-morpholinophenylamino)-5,5-dimethyl-6,7-dihydro-5H-pyrrolo[2,3-d]pyrimidin-4-ylamino)phenyl)(pyrrolidin-1-yl)methanone]
< 50 | < 100 | COc1cc(N2CCOCC2)ccc1Nc1nc2c(c(Nc3ccccc3N(C)S(C)(=O)=O)n1)C(C)(C)CN2 [Example 122, N-(2-(2-(2-methoxy-4-morpholinophenylamino)-5,5-dimethyl-6,7-dihydro-5H-pyrrolo[2,3-d]pyrimidin-4-ylamino)phenyl)-N-methylmethanesulfonamide]
< 20 | < 50 | COc1cc(N2CCOCC2)ccc1Nc1nc2c(c(Nc3ccccc3S(=O)(=O)C(C)C)n1)CCN2 [Example 100, N^4-(2-(isopropylsulfonyl)phenyl)-N^2-(2-methoxy-4-morpholinophenyl)-6,7-dihydro-5H-pyrrolo[2,3-d]pyrimidine-2,4-diamine]
< 20 | < 20 | CC(C)NS(=O)(=O)c1ccccc1Nc1nc(Nc2cccc(NS(C)(=O)=O)c2)nc2c1CCN2 [Example 73, N-isopropyl-2-(2-(3-(methylsulfonamido)phenylamino)-6,7-dihydro-5H-pyrrolo[2,3-d]pyrimidin-4-ylamino)benzenesulfonamide]
< 20 | < 20 | CNC(=O)c1ccc(Nc2nc3c(c(Nc4ccccc4S(=O)(=O)NC(C)C)n2)CCN3)cc1 [Example 53, 4-(4-(2-(N-isopropylsulfamoyl)phenylamino)-6,7-dihydro-5H-pyrrolo[2,3-d]pyrimidin-2-ylamino)-N-methylbenzamide]
< 20 | < 20 | COCCNS(=O)(=O)c1ccccc1Nc1nc(Nc2ccc(N3CCOCC3)cc2OC)nc2c1C1(CC1)CN2 [Example 141, 2-(2′-(2-methoxy-4-morpholinophenylamino)-6′,7′-dihydrospiro[cyclopropane-1,5′-pyrrolo[2,3-d]pyrimidine]-4′-ylamino)-N-(2-methoxyethyl)benzenesulfonamide]
< 300 | < 50 | COc1cc(N2CCOCC2)ccc1Nc1nc2c(c(Nc3ccccc3S(=O)(=O)NC3CCCC3)n1)C(C)CN2 (racemic) [Example 28, (±)-N-cyclopentyl-2-(2-(2-methoxy-4-morpholinophenylamino)-5-methyl-6,7-dihydro-5H-pyrrolo[2,3-d]pyrimidin-4-ylamino)benzenesulfonamide]
< 20 | < 20 | COc1cc(N2CCOCC2)ccc1Nc1nc2c(c(Nc3ccccc3S(=O)(=O)NC(C)C)n1)C(C)CN2 (stereo not shown) [Example 101, N-isopropyl-2-(2-(2-methoxy-4-morpholinophenylamino)-5-methyl-6,7-dihydro-5H-pyrrolo[2,3-d]pyrimidin-4-ylamino)benzenesulfonamide]
< 20 | < 20 | CC(C)NS(=O)(=O)c1ccccc1Nc1nc(Nc2ccc(N3CCOCC3)nc2)nc2c1CCN2 [Example 57, N-isopropyl-2-(2-(6-morpholinopyridin-3-ylamino)-6,7-dihydro-5H-pyrrolo[2,3-d]pyrimidin-4-ylamino)benzenesulfonamide]
< 20 | < 20 | COc1cc(N2CCC(O)CC2)ccc1Nc1nc2c(c(Nc3ccccc3S(=O)(=O)NC(C)C)n1)CCN2 [Example 86, 2-(2-(4-(4-hydroxypiperidin-1-yl)-2-methoxyphenylamino)-6,7-dihydro-5H-pyrrolo[2,3-d]pyrimidin-4-ylamino)-N-isopropylbenzenesulfonamide]
< 20 | < 20 | COc1cc(N2CCOCC2)ccc1Nc1nc2c(c(Nc3ccccc3S(=O)(=O)NC3CCC3)n1)C(C)CN2 (racemic) [Example 27, (±)-N-cyclobutyl-2-(2-(2-methoxy-4-morpholinophenylamino)-5-methyl-6,7-dihydro-5H-pyrrolo[2,3-d]pyrimidin-4-ylamino)benzenesulfonamide]
< 20 | < 50 | COc1cc(N2CCCC(O)C2)ccc1Nc1nc2c(c(Nc3ccccc3S(=O)(=O)NC(C)C)n1)CCN2 (stereo not shown) [Example 81, 2-(2-(4-(3-hydroxypiperidin-1-yl)-2-methoxyphenylamino)-6,7-dihydro-5H-pyrrolo[2,3-d]pyrimidin-4-ylamino)-N-isopropylbenzenesulfonamide]
